# Test results from paper PMC9066070, “RGI‐GOLVEN signaling promotes cell surface immune receptor abundance to regulate plant immunity” (EMBO Reports, 2022).
# “Also recorded” adds a separate entry of the source. Non-standard residues stand in square brackets, D forms with d. Residues, ends and D or L forms follow the SMILES beside them. No end group written: not given here. *: point of attachment. SO3H = sulfated tyrosine (TyrSO3H2), O=S(=O)(O)*; Hyp = O=C(O)[C@@H]1C[C@@H](O)CN1; Cbz = O=C(OCc1ccccc1)*
# T1: ectodomain of RGI3 with C-terminal Strep II-9x His tag (RGI3^ECD-Strep II-9x His) (Arabidopsis thaliana, UniProt C0LGR3 25-703, fluorescent dye by Monolith Protein Labeling Kit RED-tris-NTA Second Generation (His-tag reactive))
# T1 construct: It was cloned into the baculovirus transfer vector pMeIBac B1 for secreted expression; not shown: Strep II-9x His, C-terminal, kept
# T1 sequence (looked up): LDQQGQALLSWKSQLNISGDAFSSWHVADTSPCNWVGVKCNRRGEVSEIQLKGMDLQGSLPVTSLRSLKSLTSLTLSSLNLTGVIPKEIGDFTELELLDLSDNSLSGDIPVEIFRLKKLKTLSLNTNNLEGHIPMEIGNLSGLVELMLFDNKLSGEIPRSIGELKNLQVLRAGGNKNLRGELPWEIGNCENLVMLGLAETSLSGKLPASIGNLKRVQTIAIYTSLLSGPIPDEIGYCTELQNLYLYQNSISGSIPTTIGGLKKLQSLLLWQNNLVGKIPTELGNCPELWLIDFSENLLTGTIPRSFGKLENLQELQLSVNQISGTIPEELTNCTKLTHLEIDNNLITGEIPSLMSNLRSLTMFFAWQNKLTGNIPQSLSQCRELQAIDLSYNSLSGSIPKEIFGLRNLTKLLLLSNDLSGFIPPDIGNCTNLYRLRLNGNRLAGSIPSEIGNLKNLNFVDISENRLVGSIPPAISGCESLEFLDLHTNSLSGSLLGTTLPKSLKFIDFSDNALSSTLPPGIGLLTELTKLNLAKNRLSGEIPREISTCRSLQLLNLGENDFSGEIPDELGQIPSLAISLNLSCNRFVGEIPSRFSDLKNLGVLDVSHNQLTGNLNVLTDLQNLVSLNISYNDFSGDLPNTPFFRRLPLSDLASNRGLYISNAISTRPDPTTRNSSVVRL
# B1: GLV2 peptide without sulfated tyrosine (GLV2^-S) (peptide)
# peptide: DMDYNSANKKRPIHN
# modifications: without sulfated tyrosine
# notes: mature GLV2 peptide cut from the GLV2 precursor, Arabidopsis thaliana, tyrosine not sulfated; also called GLV^-S; source: synthetic peptide (Pepmic, Suzhou, China; purity minimum 90%)
# B2: GOLVEN2 (GLV2) peptide, tyrosine-sulfated (peptide)
# peptide: DMDY(SO3H)NSANKKR[Hyp]IHN
# notes: mature GLV2 peptide cut from the GLV2 precursor, Arabidopsis thaliana; also called synthetic GLV2; source: synthetic peptide (Pepmic, Suzhou, China; purity minimum 90%)
# Tests used:
# [1] = test system: 26S proteasome; assay: FLS2 accumulation in rgi5x after MG132 treatment, western blot; type: in vivo, Arabidopsis thaliana; settings: rgi5x seedlings, 50 μM MG132, 1 h
# Description: Figure 6 GLV2 perception by RGIs promotes maximal FLS2 abundance independent of transcription • Twelve‐day‐old WT or 35S::GLV2 8‐5 seedlings were treated with mock or 1 μM GLV2 for 24 h before protein extraction. Western blots were probed with α‐FLS2 or α‐BAK1 antibodies. CBB: Coomassie brilliant blue. • Quantitative real‐time PCR of FLS2 transcripts from 12‐day‐old seedlings treated with mock or 1 μM GLV2 for the indicated time, n = 3 biological replicates. UBQ was used as a house keeping gene. […] Western blot was probed with α‐FLS2 antibodies. • Protein extraction was performed from 12‐day‐old seedlings after 1 h treatment with mock or 50 μM MG132. Western blots were probed with α‐FLS2 antibodies. Data information: Similar results were obtained in three independent experiments. Source data are available online for this figure.
# [2] = test system: FLS2 transcription; design: method as in Flury et al, 2013; Tintor et al, 2013; Hou et al, 2014; settings: ref Flury et al, 2013, Tintor et al, Hou et al, 2014; cited from earlier work
# [3] = test system: PRR-BAK1 complex; settings: ref Stegmann et al, 2017; cited from earlier work
# Text: FER controls FLS2-BAK1 and EFR-BAK1 complex formation independent of protein accumulation ([…] et al, [2017]). In contrast to GLV2 treatment, the FER ligand RALF23 inhibits PRR-BAK1 complex formation. […] Whether GLV2's promotion of PRR complex formation and the regulation of PRR ...
# [4] = biological target: T1, ectodomain of RGI3 with C-terminal …; settings: both partners purified
molecule,measurement,setting,value
CC(C)C[C@@H](C=O)NC(=O)[C@H](CC(C)C)NC(=O)[C@H](CC(C)C)NC(=O)OCc1ccccc1 [MG132] (Cbz-Leu-Leu-Leu-aldehyde),FLS2 accumulation defect of rgi5x,[1],partial restoration; also recorded: partially rescued
"PIP1: PATHOGEN-ASSOCIATED MOLECULAR PATTERN (PAMP)-INDUCED PEPTIDE perceived by RLK7 (GRVLTEKSGDGSATMTVEKMKSTVDSWFQRLASGPSPRGRGH; PAMP-induced secreted peptide 1; UniProt Q1PE40 31-72, looked up)",FLS2 transcription,[2],upregulation of FLS2 transcription
"RALF23: FER ligand; RAPID ALKALINIZATION FACTOR peptide (ATRRYISYGALRRNTIPCSRRGASYYNCRRGAQANPYSRGCSAITRCRRS; Protein RALF-like 23; UniProt Q9LUS7 89-138, looked up)",PRR-BAK1 complex formation,[3],inhibits PRR‐BAK1 complex formation
B1,Kd,[4],129 nM
B2,Kd,[4],11.8 nM
